The subject of data set [1] is mice. The data set is described as follows: acute toxicity test to mice. Conditions: intraperitoneal administration, dose of 400 mg/kg. The data set is classed as in vivo, mouse. As for the experimental part: No mouse administered intraperitoneally with Pam-Dhc(Pam)2 -Gly-Gly-Gly-Glu-Thr-Thr-OH (Compound 1) (SEQ ID No. 89) at a dose of 400 mg/kg was found dead.
For data set [2], the system named is spleen cells of mice. The data set can be described thus: number of spleen cells in cyclophosphamide-treated mice (Experimental Example 4). In kind it is in vivo, BALB/c mouse. Conditions: cyclophosphamide singly, 200 mg/kg i.p.; saline/2% gum arabic mouse = 100%. On the procedure:
A BALB/c mouse was injected intraperitoneally with cyclophosphamide dissolved in physiological saline solution at a dose of 200 mg/kg. From the day after next, the animal was administered intraperitoneally for 4 consecutive days with the test compound suspended in physiological saline solution containing 2% gum arabic. On the day following completion of the administration, number of trypan blue chromophobic cells of spleen was counted.

The subject of data set [3] is peritoneal cavity cells of mice. The data set is described as follows: number of peritoneal cavity cells in cyclophosphamide-treated mice (Experimental Example 2). In kind it is in vivo, BALB/c mouse. Conditions: cyclophosphamide singly, 250 mg/kg i.p.; saline/2% gum arabic mice = 100%. On the procedure:
(§1) A BALB/c mouse was injected intraperitoneally with cyclophosphamide dissolved in physiological saline solution at a dose of 250 mg/kg. From the next day, the animal was administered intraperitoneally for 3 consecutive days with TAN-1511 complex suspended in physiological saline solution containing 2% gum arabic at a dose of 2 mg/kg/day. On the day following completion of the administration, number of trypan blue chromophobic cells of spleen and peritoneal cavity was counted.

Data set [4] relates to spleen cells of mice. The data set can be described thus: number of spleen cells in cyclophosphamide-treated mice (Experimental Example 2). The data set is classed as in vivo, BALB/c mouse. Conditions: cyclophosphamide singly, 250 mg/kg i.p.; saline/2% gum arabic mice = 100%. As for the experimental part: as §1
The subject of data set [5] is leukocytes of peripheral blood. The data set can be described thus: enhancing the number of leukocytes in cyclophosphamide-treated mice. In kind it is in vivo, CDF1/Crj mice. Conditions: cyclophosphamide 150 mg/kg orally, then 5% glucose s.c. for 5 days; mice without cyclophosphamide = 100%.
Description: Six week old female CDF1/Crj mice (5animals/group) were subjected to the experiment. […] From the next day, each animal was administered subcutaneously with the compound suspended in 5% glucose at the following dosages for five days once a day. On the next day after completion of the administration, about 100 μl of peripheral blood was collected from orbital vein using an EDTA-treated glass capillary. Then, the number of leukocytes was counted using a automatic cell analyzer (Sysmex K-2000, Toa Medical Electronics, Japan)

*1 amine or outer side, *2 acyl side, *3 side chain or, on linkers, in order; H or OH if unused. Where a SMILES comes first, the peptide text is derived from it. [ ]: non-standard residue; d: D form. The star is where a group is joined. Dhc(Pam)2 = S-[2,3-bis(hexadecanoyloxy)-(2S)-propyl]-(R)-cysteine, CCCCCCCCCCCCCCCC(=O)OC[C@@H](CSC[C@H](N[*:1])C(=O)[*:2])OC(=O)CCCCCCCCCCCCCCC; Propyl(2R-PamO,3-PamO) = CCCCCCCCCCCCCCCC(=O)OC[C@H](C*)OC(=O)CCCCCCCCCCCCCCC; Palmitoyl = CCCCCCCCCCCCCCCC(=O)*; Myristoyl = CCCCCCCCCCCCCC(=O)*

With `CCCCCCCCCCCCCCCC(=O)OC[C@H](CSC[C@H](NC(=O)CCCCCCCCCCCCC)C(=O)NCC(=O)NCC(=O)NCC(=O)N[C@@H](CCC(=O)O)C(=O)N[C@H](C(=O)N[C@H](C(=O)O)[C@@H](C)O)[C@@H](C)O)OC(=O)CCCCCCCCCCCCCCC` [Compound 9, (2R,6R)-2-Myr-amino-6,7-bis(PamO)-4-THT-Gly-Gly-Gly-Glu-Thr-Thr-OH] (Myristoyl-C(Propyl(2R-PamO,3-PamO))GGGETT-OH), in data set [1], the “mice found dead / killed” value is given as “No mouse was killed”.
With `O=P1(N(CCCl)CCCl)NCCCO1` (stereo not drawn) [Cyclophosphamide], in data set [2], the “Number of abdominal cavity cells (%)” value was 33.4%. Also, the “Number of peritoneal cavity cells (%)” value in data set [3] is reported as 27.7%. Moreover, the “Number of spleen cells (%)” value in data set [4] came to 11.8%. For the same molecule, the “average value and standard deviation of leukocyte numbers” value in data set [5] is 41±11%.
In the case of “Pam-Dhc(Pam)2 -Gly-Gly-Gly-Glu-Thr-Thr-OH (Palmitoyl-[Dhc(Pam)2]GGGETT-OH; SMILES CCCCCCCCCCCCCCCC(=O)N[C@@H](CSC[C@H](COC(=O)CCCCCCCCCCCCCCC)OC(=O)CCCCCCCCCCCCCCC)C(=O)NCC(=O)NCC(=O)NCC(=O)N[C@@H](CCC(=O)O)C(=O)N[C@H](C(=O)N[C@H](C(=O)O)[C@@H](C)O)[C@@H](C)O) [Compound 1]”, the “mice found dead / killed” value in data set [1] is on record as “No mouse”.

(Values after patent US5478809A, “TAN-1511, its derivatives, production and use thereof” (Takeda Chemical Industries, Ltd., priority 1992, dated 1995).)
